Assay results from patent publication US20100099109A1, “Methods for Analyzing Drug Response” (NODALITY, INC., A DELAWARE CORPORATION, priority 2008, published 2010).
Entries after “also recorded” stand apart in the source; their conditions may differ.

Legend:
Healthy myeloid cells = assay: Mylotarg treatment of healthy myeloid cells (DNA damage and apoptosis); assay type: cell-based; conditions: at 72 h
Description: In some embodiments, the invention may identify a set of drug response signatures in disease cells. The drug response signature is a profile of the activation levels of activatable elements following in vitro exposure of patient samples to a drug and one or more modulators, and can predict whether patients may respond to the drug. […] In some embodiments, other measurements of cell viability may be used, for example cleaved caspase 3, or amount of dyes staining or other stains, for example: propidium idodide, SYTOX, TUNEL, or acridine orange. […] For review, see van Attikum H., and Gasser S. M. Trends in Cell Biology 19: pp. 207-17 (2009). ATR and ATM kinase activity in response to DNA damage activates Chk1 and Chk2, respectively. […] For review, see Abraham, R. T. Cell cycle checkpoint signaling through the ATM and ATR kinases. Genes & Dev. 15: 2177-96 (2001). […] This is also seen at earlier timepoints.

Ramos cells = assay: Mylotarg exposure, multiparameter flow cytometry of DNA damage and cell cycle; assay type: cell-based
Description: (§1) ATM activity also phosphorylates Chk2 and p53. […] Cyclin B1 is produced during the G2 phase of the cell cycle and its accumulation drives the cell cycle into M phase. Therefore, low levels of Cyclin B1 mark G1 and S phases, high levels mark G2 phase, and higher levels mark M phase. Histone H3 (S28) becomes phosphorylated in M phase, making p-Histone H3(S28) a useful marker of cells in M phase and not G2. It is also possible to monitor the G2/M phases of the cell cycle by measuring the phosphorylation status of Cdk1, previously known as Cdc2, a cyclin-dependent protein kinase that controls the cell cycle entry from G2 to M phase. An inhibitory phosphorylation on Cdk1 is removed by CDC25C in the M phase transition, allowing G2 cells to be distinguished from M cells based on levels of p-Cdk1. […] Treating cells with the microtubule polymerization inhibitor Nocodazole induces cells cycle arrest in M phase without DNA damage.
The experimental measurements included forward and side scatter, the use of viability dyes (amine aqua and propidium iodide (PI)), and determination of cell cycle and apoptosis by measuring DNA content with DRAQ5. Additionally, cell cycle progression was measured by determining levels of cyclin B1, phosphorylated histone H3, and phosphorylated CDK-1. All these determinations were made in freshly thawed as well as in cultured cycling cells. […]

[1] = system: Mylotarg refractory cell lines; assay: Mylotarg exposure and modulated signaling in resistant cell lines; assay type: cell-based
Procedure: (§2) The experimental measurements included forward and side scatter, the use of viability dyes (amine aqua and propidium iodide (PI)), and determination of cell cycle and apoptosis by measuring DNA content with DRAQ5. Additionally, cell cycle progression was measured by determining levels of cyclin B1, phosphorylated histone H3, and phosphorylated CDK-1. All these determinations were made in freshly thawed as well as in cultured cycling cells.
(§3) After incubation with fluorochrome-conjugated antibody panels that recognized: p-H2AX, p-Chk2, p-ATM, p-53, cleaved PARP and cleaved caspase 3, cells were processed for cytometry as described above.
(§4) Experiments were conducted in which cell lines were exposed for 5-15 minutes to growth factors and cytokines, after which cells were fixed, permeabilized and incubated with panels of fluorochrome-conjugated antibody panels that recognized intracellular signaling molecules. After processing, cells were acquired on the cytometer.

primary AML cell sample = assay: Mylotarg response signatures (DNA damage response by p-CHK2/p-H2AX; apoptosis by cleaved PARP, FSC and viability dyes), flow cytometry; assay type: cell-based, human
Procedure: The present illustrative example represents how to analyze cells in one embodiment of the present invention. There are several steps in the process, such as treatment with modulator, incubation with antibodies, and processing sample for acquisition of cells on the cytometer. Treatment with modulator(s) can start with thawed cryopreserved cells and end with cells fixed in PFA and permeabilized in methanol. Then the cells can be incubated with an antibody directed to a particular protein of interest and then analyzed using a flow cytometer. A protocol similar to the following was used to analyze AML cells from patient samples. The materials and methods described in this example can be used and/or were used in the other examples described below.
Cell thawing and live/dead staining: Cells are thawed_in a 37° C. water bath, gently resuspend in the vial, and transferred to a 15 mL conical tube. The 15 mL tube is centrifuged at 930 RPM (200×g) for 8 minutes at room temperature. The supernatant is then aspirated, and the pellet is gently resuspended in 1 mL media A. The cell suspension is filtered through a 70 um cell strainer into a new 15 mL tube. The cell strainer is then rinsed with 1 mL media A and another 12 mL of media A into the 15 mL tube. Collected cells are then mixed into an even suspension. A 20 μl, aliquot of this suspension is immediately transferred into a 96-well plate containing 180 μl, PBS+4% FBS+CD45 Alexa 700+PI to determine cell count and viability post spin. After the determination, the 15 mL tubes are centrifuged at 930 RPM (200×g) for 8 minutes at room temperature. The resulting supernatant is aspirated, and the cells are gently resuspended in 4 mL PBS+4 μl, Amine Aqua (another equivalent viability dye can be used instead) and incubated for 15 min in a 37° C. incubator. 10 mL RPMI+1% FBS are added to the cell suspension, followed by inversion mixing. The 15 mL tubes are centrifuged at 930 RPM (200×g) for 8 minutes at room temperature. The stained cells are then resuspended in Media A at the desired cell concentration (1.25×10^6/mL). • a. Samples with low numbers of cells (<18.5×10^6) are resuspend in up to 15 mL of media. • b. For samples with high numbers of cells (>18.5×10^6), the volume is raised to 10 mL with media A and the desired volume is transferred to a new 15 mL tube, adjusting the cell concentration to 1.25×10^6 cells/mL. 1.6 mL of the above cell suspension are then transferred into wells of a multi-well plate, from which 80 ul are distributed into each well of a subsequent plate. Plates are covered with a lid (Nunc) and placed in a 37° C. incubator for 2 hours to rest.
Treatment of Cells with a Modulator: A concentration for each stimulant that is five fold (5×) more than the final concentration is prepared using Media A as diluent. The 5× stimulants are arrayed in a standard 96 well v-bottom plate that correspond to the wells on the plate with cells to be stimulated. Fixative is prepared by dilution of stock 16% paraformaldehyde with PBS to a concentration that is 1.5×, then placed in a 37° C. water bath. Once the plated cells have completed their incubation, the plate(s) are taken out of the incubator and place in a 37° C. water bath next to the pipette apparatus. Prior to addition of stimulant, each plate of cells is taken from the water bath and gently swirled to resuspend any settled cells. The stimulant is pipetted into the cell plate, which is then held over a vortexer set to “7” and mixed for 5 seconds, and followed by the return of the deep well plate to the water bath.
Fixing Cells: 200 μL of the fixative solution (final concentration is 1.6%) is dispensed into wells and then mixed on the titer plate shaker on high for 5 seconds. The plate is then covered with foil sealer and floated in 37° C. water bath for 10 min, followed by a 6 min spin at 2000 rpm at room temperature.

[2] = system: Mylotarg sensitive cell lines; assay: Mylotarg exposure and modulated signaling in sensitive cell lines; assay type: cell-based
Procedure: as §2, §3, §4

U937 cell line = assay: Mylotarg/Nocodazole exposure, multiparameter flow cytometry of DNA damage, cell cycle and apoptosis; assay type: cell-based
Description: as §1, §2, §3

GDM-1 cells = assay: Mylotarg exposure, multiparameter flow cytometry of DNA damage, cell cycle and apoptosis; assay type: cell-based
Description: as §1, §2
(§5) The experiments were conducted in a similar fashion as shown above for examples 1 and 2. […] After incubation with fluorochrome-conjugated antibody panels that recognized: p-H2AX, p-Chk2, p-ATM, p-53, cleaved PARP and cleaved caspase 3, cells were processed for cytometry as described above.

KG-1 cells = assay: as above; assay type: cell-based
Description: as §1, §2, §5

[3] = system: Peripheral blood mononuclear cells and bone marrow mononuclear cells derived from AML and healthy samples; assay: Expression marker levels after Mylotarg exposure; assay type: cell-based
[4] = lyophilized powder; cited from earlier work

In the case of gemtuzumab ozogamicin [Mylotarg], the “cleaved PARP and apoptosis” value (Healthy myeloid cells) was “increases in cleaved PARP and apoptosis”, the “levels of p-Chk2, p-H2AX, p-ATM, p-P53” value (Healthy myeloid cells) was “increased levels” and the “DNA damage response (levels of p-H2AX, p-p53, p-Chk2, p-ATM)” value (Ramos cells) was “does not induce changes”. For the same substance, the “proportion of populations of cells arrested in the cell cycle (p-Histone H3(S28), p-CDK1, CyclinB1)” value (Ramos cells) was “does not largely increase”, the G2/M arrest [1] was “failure to undergo G2/M arrest” and the cell death [1] was “only modest increase in cell death”. The “cyclin B1 levels” value [1] was “failure to increase cyclin B1 levels”, the “p-H2AX and p-Chk2” value [1] was “minimal increase in p-H2AX and p-Chk2” and the “CD33++ cells with induced DNA damage response, as measured by p-CHK2 and p-H2AX” value (primary AML cell sample; signature 1 sample, 6 hours of exposure to Mylotarg) was “approximately 60%”. The “live myeloid cells becoming PARP+” value (primary AML cell sample; signature 1 sample, after 24 and 48 hours) was 22%, the “CD33++ cells with induced DNA damage response, as measured by p-CHK2 and p-H2AX” value (primary AML cell sample; signature 2 sample, 6 hours of exposure to Mylotarg) was “approximately 80%” and the “live myeloid cells becoming PARP+” value (primary AML cell sample; signature 2 sample, after 24 or 48 hours) was 4%. For the same substance, the “live myeloid cells becoming PARP+” value (primary AML cell sample; signature 3 sample) was 8%, the “CD33+ cells with induced DNA damage response, as measured by p-CHK2 and p-H2AX” value (primary AML cell sample; signature 3 sample, 6 hours of exposure to Mylotarg) was “approximately 15%” and the G2/M arrest [2] was “G2/M arrest”. The “cyclin B1 levels” value [2] was “increase in cyclin B1 levels; also recorded: increased cyclin B1 levels”, the “p-H2AX and p-Chk2” value [2] was “increased p-H2AX and p-Chk2 without transporter inhibitor” and the “cell death (scatter, viability and DNA content dyes)” value ([2]; compared to refractory cell lines) was “more cell death; also recorded: increased percentage of dead cells”. For the same substance, the “DNA damage response (levels of p-H2AX, p-Chk2, p-ATM, p-53)” value (U937 cell line) was “increased levels; also recorded: significant increase”, the “cell cycle arrest (Cyclin B1, p-Histone H3(S28), p-Cdk1)” value (U937 cell line; 24 hours exposure) was “arrest at the G2/M checkpoint” and the “cell cycle arrest (Cyclin B1, p-Histone H3(S28))” value (U937 cell line; 48 hours exposure) was “arrest at the G2/M checkpoint, and a minor cell population with increased p-histone H3(S28), indicating minor arrest in M phase”. The “DNA damage response (levels of p-H2AX, p-p53, p-Chk2, p-ATM)” value (GDM-1 cells) was “does not induce changes; also recorded: this was not the case”, the “cell cycle arrest and apoptosis after Mylotarg treatment” value (GDM-1 cells) was “resistant to cell cycle arrest and apoptosis” and the “proportion of populations of cells arrested in the cell cycle (p-Histone H3(S28), p-CDK1, CyclinB1)” value (GDM-1 cells) was “does not largely increase”. The “DNA damage response (levels of p-H2AX, p-p53, p-Chk2, p-ATM)” value (KG-1 cells) was “does not induce changes; also recorded: this was not the case”, the “cell cycle arrest and apoptosis after Mylotarg treatment” value (KG-1 cells) was “resistant to cell cycle arrest and apoptosis” and the “proportion of populations of cells arrested in the cell cycle (p-Histone H3(S28), p-CDK1, CyclinB1)” value (KG-1 cells) was “does not largely increase”. For the same substance, the “expression levels of the CD33 and CD13 phenotypic markers for myeloid cells” value ([3]; exposed for 6 hours) was “reduction”, the CD11b levels ([3]; same exposure conditions) was “remain unchanged” and the CD13 levels ([3]; twenty-four (24) hours of exposure) was “reduced”. The “light sensitivity of the drug product” value [4] was “light sensitive”.
